Laboratory results published in patent publication US9861575B2, “Vitamin-containing nutrition infusion for administration through peripheral vein” (AJINOMOTO CO., INC., priority 2010, dated 2018).
Where a name gives a salt, the structure may show the parent alone.

Legend:
[1] = Test Example 6: stability of respective vitamins on storage of infusion formulation of Example 11; assay type: physicochemical; conditions: in infusion formulation of Example 11, percentage based on the mixed amount; for residual rate (content), storage for 3 months / residual rate (content), storage for 1 month: 40° C. and 75% RH
Source text: In addition, the content is expressed as a percentage based on the mixed amount. From the results, it is considered that the infusion formulation of the present invention remains stable even when stored for a long time.

[2] = Test Example 7: stability of mixed solution of Example 11; assay type: physicochemical; conditions: mixed solution of Example 11, room temperature, light-shielded; value immediately after mixing = 100%
Description: Regarding the infusion formulations prepared in Example 11, the partition portions were opened to thoroughly mix the sugar solution with the amino acid solution at room temperature, and then the mixed solution was sampled after 0 hours, 24 hours, and 48 hours to measure the content of the respective vitamins and N-acetyl cysteine. In addition, the mixed solution was stored in a light-shielded environment. The value measured immediately after mixing was taken as 100%, and the content at each point in time of measurement is expressed as a percentage. All of the respective components remained stable until 48 hours elapsed after mixing.

Molecule	residual rate (content), storage for 3 months [1] [%]	residual rate (content) immediately after sterilization [1] [%]	content after 24 hours [2] [%]	content after 48 hours [2] [%]	residual rate (content), storage for 1 month [1] [%]
O=C(O)CCCC[C@@H]1SC[C@@H]2NC(=O)N[C@@H]21 [Biotin]	91.4	93.6	97.9	96.7	–
Nc1nc2ncc(CNc3ccc(C(=O)N[C@@H](CCC(=O)O)C(=O)O)cc3)nc2c(=O)[nH]1 [Folic acid]	89.7	95.8	96.4	96.2	96.5
CC(=O)N[C@@H](CS)C(=O)O [N-acetyl cysteine]	–	–	98.3	97.5	–
NC(=O)c1cccnc1 [Nicotinamide]	99.6	100.9	96.6	97.2	101.5
CC(C)(CO)[C@@H](O)C(=O)NCCCO [Panthenol]	96.8	97.8	100.0	100.2	97.6
Cc1ncc(C[n+]2csc(CCO)c2C)c(N)n1 [Vitamin B1, Thiamine hydrochloride]	83.5	93.3	99.4	94.1	90.6
Cc1cc2nc3c(=O)[nH]c(=O)nc-3n(C[C@H](O)[C@H](O)[C@H](O)COP(=O)([O-])O)c2cc1C.[Na+] [Vitamin B2, Riboflavin sodium phosphate]	92.6	94.7	–	99.8	94.3
Cc1ncc(CO)c(CO)c1O.Cl [Vitamin B6, Pyridoxine hydrochloride]	97.3	97.1	100.6	99.9	96.7
O=C1O[C@H]([C@@H](O)CO)C(O)=C1O [Vitamin C, Ascorbic acid]	99.7	96.1	97.1	92.2	97.6
Cyanocobalamin [Vitamin B12]	91.2	86.3	96.0	97.9	89.7
